Paper PMC11079024, “Identification of a family of species-selective complex I inhibitors as potential anthelmintics” (Nature Communications, 2024)
Where two headings read alike, the source gives them in different places.

Legend:
[1] = tested on: ben-1 mutant (ECA882) C. elegans; assay: microbe, parasite or virus in culture; conditions: Caenorhabditis elegans; for viability at 1 µM / viability at 2 µM / viability at 3.9 µM / viability at 15.6 µM / viability at 31.3 µM / viability at 62.5 µM / viability at 125 µM / viability at 250 µM / viability at 500 µM / viability at 1000 µM: read-out: C. elegans ben-1(e1880) development/viability
Procedure, shortened: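 Development and viability scored from single well images as total worm pixels divided by the matching DMSO control value, mean of ≥3 replicates. Worms added as synchronized L1s to HB101 suspension in liquid NGM with compound (1% DMSO v/v), grown 6 days at 20 °C with shaking.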

L1 wild-type C. elegans [2] = conditions: for KCN survival assay value relative to DMSO control, Mean: mean of replicates
in vitro = conditions: human; for viability at 2 days, 3.13 µM / viability at 2 days, 6.25 µM / viability at 2 days, 12.5 µM / viability at 2 days, 25 µM / viability at 2 days, 100 µM / viability at 2 days, 50 µM: HEK293 cells (Flp-In-293)
L1 wild-type C. elegans [3] = assay: microbe, parasite or virus in culture; conditions: Caenorhabditis elegans
[4] = read-out: C. elegans (ben-1) Development & Viability Assay LC50
[5] = read-out: C. elegans ben-1 log10 LC50 (converted)
[6] = 50 μM, […], KCN survival assay, hit = relative motility below 0.25
[7] = read-out: C. elegans KCN Survival Assay LC50, estimated from fitted dose-response curves, mean of at least two biological replicates
[8] = 50 μM, […], hit = relative motility below 0.25 3 hours after removal of KCN
[9] = Dose 0.2 µM, mean of at least three biological replicates
[10] = HEK293 Cell Viability Assay LC50, HEK293 cells, estimated from fitted dose-response curves, mean of at least two biological replicates

| Compound | LC50 [1, 4] [µM] | LC50 [1, 5] [µM] | LC50 (L1 wild-type C. elegans [3]; [7]) [µM] | viability at 1 µM [1] [%] | viability at 2 µM [1] [%] | viability at 3.9 µM [1] [%] | viability at 15.6 µM [1] [%] | viability at 31.3 µM [1] [%] | viability at 62.5 µM [1] [%] | viability at 125 µM [1] [%] | viability at 250 µM [1] [%] | viability at 500 µM [1] [%] | C. elegans KCN Survival (L1 wild-type C. elegans [2]; [9]) | C. elegans KCN Survival (L1 wild-type C. elegans [2]; Dose 0.39 µM) | C. elegans KCN Survival (L1 wild-type C. elegans [2]; Dose 1.56 µM) | C. elegans KCN Survival (L1 wild-type C. elegans [2]; Dose 3.13 µM) | C. elegans KCN Survival (L1 wild-type C. elegans [2]; Dose 6.25 µM) | C. elegans KCN Survival (L1 wild-type C. elegans [2]; Dose 12.5 µM) | C. elegans KCN Survival (L1 wild-type C. elegans [2]; Dose 25 µM) | C. elegans KCN Survival (L1 wild-type C. elegans [2]; Dose 50 µM) | further results |
| --- | --- | --- | --- | --- | --- | --- | --- | --- | --- | --- | --- | --- | --- | --- | --- | --- | --- | --- | --- | --- | --- |
| Brc1ccc(Cn2cnc3ccccc32)cc1 [Compound 5542661] | 41.4 | 41.4 | 7.75 |  |  |  |  |  |  |  |  |  |  |  |  |  |  |  |  |  | Screen "Hit" (L1 wild-type C. elegans [2]; [6]): Y (hits were identified as compounds that reduced relative motility below 0.25 (75% reduction)); CC50 at 2 days (in vitro): > 100 µM |
| Cc1ccc(OCCn2cnc3ccccc32)c(C)c1 [Compound 7706808] | > 1000 | > 500 | 12 | 100 | 96.2 | 97 | 98.9 | 97.3 | 93.8 | 89.7 | 94.6 | 76.7 | 0.957 | 1.031 | 1.000 | 0.998 | 0.894 | 0.483 | 0.132 | 0.135 | viability at 1000 µM [1]: 69.9%; LC50 ([1]; read-out: C. elegans ben-1 LC50): > 500 µM; Screen "Hit" (L1 wild-type C. elegans [2]; [8]): Y (hits were identified as compounds that reduced relative motility below 0.25 (75% reduction)); C. elegans KCN Survival (L1 wild-type C. elegans [2]; Dose 100 µM): 0.199; CC50 at 2 days (in vitro): 89.1 µM; viability at 2 days, 3.13 µM (in vitro; HEK293 viability): 100%; viability at 2 days, 6.25 µM (in vitro; HEK293 viability): 100%; viability at 2 days, 12.5 µM (in vitro; HEK293 viability): 100%; viability at 2 days, 25 µM (in vitro; HEK293 viability): 100%; viability at 2 days, 100 µM (in vitro; HEK293 viability): 36.2%; viability (in vitro; HEK293 viability, Dose 50 µM): 94.6% |
| Nc1nc2ccccc2n1Cc1ccc(Cl)cc1 [Compound 5652765] | 71.7 | 71.6 | 16.9 | 98 | 94.6 | 92.8 | 89.9 | 76.1 | 63.7 | 13.8 | 7.4 | 6.3 | 0.973 | 1.034 | 1.067 | 1.051 | 1.001 | 0.758 | 0.271 | 0.140 | Screen "Hit" (L1 wild-type C. elegans [2]; [6]): Y (hits were identified as compounds that reduced relative motility below 0.25 (75% reduction)); C. elegans KCN Survival (L1 wild-type C. elegans [2]; Dose 100 µM): 0.216; CC50 at 2 days (in vitro; [10]): 58.9 µM; viability at 2 days, 3.13 µM (in vitro; HEK293 viability): 94.2%; viability at 2 days, 6.25 µM (in vitro; HEK293 viability): 94%; viability at 2 days, 12.5 µM (in vitro; HEK293 viability): 92.9%; viability at 2 days, 25 µM (in vitro; HEK293 viability): 94.5%; viability at 2 days, 50 µM (in vitro; HEK293 viability, Dose 50 µM): 62.3%; viability at 2 days, 100 µM (in vitro; HEK293 viability): 10% |
| Cc1nc2ccccc2n1Cc1ccc(Cl)cc1 [STK697993] | 40.1 | 40.1 |  |  |  |  |  |  |  |  |  |  |  |  |  |  |  |  |  |  | Screen "Hit" (L1 wild-type C. elegans [2]; 50 μM compound, […], hit = relative motility below 0.25 3 hours after removal of KCN): Y (hits were identified as compounds that reduced relative motility below 0.25 (75% reduction)); Relative Motility (L1 wild-type C. elegans [2]; 50 μM compound, […], worm motility 3 hours after removal of KCN, relative to DMSO controls, single biological replicate): 0.000; KCN survival assay value relative to DMSO control, Mean (L1 wild-type C. elegans [2]; dose 3.1 µM, […]): 1.037; KCN survival assay value relative to DMSO control, Mean (L1 wild-type C. elegans [2]; dose 6.3 µM, […]): 1.001; KCN survival assay value relative to DMSO control, Mean (L1 wild-type C. elegans [2]; dose 12.5 µM, […]): 0.717; KCN survival assay value relative to DMSO control, Mean (L1 wild-type C. elegans [2]; dose 25 µM, […]): 0.059; KCN survival assay value relative to DMSO control, Mean (L1 wild-type C. elegans [2]; dose 50 µM, […]): 0.046; CC50 at 2 days (in vitro; HEK293 Cell Viability Assay LC50): > 100 µM; LC50 (L1 wild-type C. elegans [3]; read-out: C. elegans KCN Survival Assay LC50): 8.18 µM |
| Cc1ccc(SCCCn2cnc3ccccc32)cc1 [Compound 7926035] | 69.8 | 69.8 | 4.71 | 94.4 | 87.2 | 86.3 | 91.5 | 76.7 | 57.7 | 5.4 | 2.6 | 3.4 | 0.990 | 0.961 | 0.929 | 0.707 | 0.388 | 0.123 | 0.118 | 0.139 | viability at 1000 µM [1]: 5.6%; Screen "Hit" (L1 wild-type C. elegans [2]; [8]): Y (hits were identified as compounds that reduced relative motility below 0.25 (75% reduction)); C. elegans KCN Survival (L1 wild-type C. elegans [2]; Dose 100 µM): 0.184; CC50 at 2 days (in vitro; [10]): 71.4 µM; viability at 2 days, 3.13 µM (in vitro; HEK293 viability): 90.8%; viability at 2 days, 6.25 µM (in vitro; HEK293 viability): 96.6%; viability at 2 days, 12.5 µM (in vitro; HEK293 viability): 98.4%; viability at 2 days, 25 µM (in vitro; HEK293 viability): 97.6%; viability at 2 days, 50 µM (in vitro; HEK293 viability, Dose 50 µM): 65.6%; viability at 2 days, 100 µM (in vitro; HEK293 viability): 30.4% |
| Cc1ccc(SCCCCn2cnc3ccccc32)cc1 [Compound 7925333] | 227 | 227 | 7.76 | 92 | 100 | 98 | 90.4 | 93.2 | 77.8 | 80.7 | 53.9 | 3.6 | 0.989 | 1.001 | 0.933 | 0.876 | 0.745 | 0.174 | 0.119 | 0.151 | viability at 1000 µM [1]: 1%; Screen "Hit" (L1 wild-type C. elegans [2]; [6]): Y (hits were identified as compounds that reduced relative motility below 0.25 (75% reduction)); C. elegans KCN Survival (L1 wild-type C. elegans [2]; Dose 100 µM): 0.185; CC50 at 2 days (in vitro; [10]): 75.1 µM; viability at 2 days, 3.13 µM (in vitro; HEK293 viability): 88.6%; viability at 2 days, 6.25 µM (in vitro; HEK293 viability): 97%; viability at 2 days, 12.5 µM (in vitro; HEK293 viability): 99.2%; viability at 2 days, 25 µM (in vitro; HEK293 viability): 100%; viability at 2 days, 50 µM (in vitro; HEK293 viability, Dose 50 µM): 77.2%; viability at 2 days, 100 µM (in vitro; HEK293 viability): 25.7% |
